In patent publication US20260240872A1, “COMBINATION OF METFORMIN AND GLIBENCLAMIDE IN THE TREATMENT OF PARKINSON'S DISEASE” (CXS THERAPEUTICS, priority 2023, published 2026):

B1: BDNF: Brain Derived Neurotrophic factor, used as reference compound (positive control) at 50 ng/ml (protein, UniProt P23560 19-247, looked up)
Neurotrophic factor BDNF …: APMKEANIRGQGGLAYPGVRTHGTLESVNGPKAGSRGLTSLADTFEHVIEELLDEDQKVRPNEENNKDADLYTSRVMLSSQVPLEPPLLFLLEEYKNYLDAANMSMRVRRHSDPARRGELSVCDSISEWVTAADKKTAVDMSGGTVTVLEKVPVSKGQLKQYFYETKCNPMGYTKEGCRGIDKRHWNSQCRTTQSYVRALTMDSKKRIGWRFIRIDTSCVCTLTIKRGR

Columns and labels:
Type in all cases: cell-based
[1] = tested on: rat primary dopaminergic neurons; experiment: Example 2: 6-OHDA injury, protective protocol, length of TH positive neurites; details: for neurites loss / protection of neurites from damages induced by 6-OHDA: one-hour pre-treatment, 6-OHDA 48 hours; for neurites loss: Plate 1, not significant; for protection of neurites from damages induced by 6-OHDA: compound alone, conclusion; for neurites loss (decrease of neurites length): 6-OHDA 20 μM, 48 hours; for neurites length: p<0.05
Protocol: (§1) The total number and the neurites length of dopaminergic neurons was assessed.
(§2) Rat mesencephalic neurons were cultured as described by Schinelli et al., 1988. Briefly pregnant female rats of 15 days gestation were killed by cervical dislocation (Rats Wistar; Janvier Lab) and the fetuses removed from the uterus. The embryonic midbrains were removed and placed in ice-cold medium of Leibovitz 15 (L15; PanBiotech, Ref P04-27055, Batch: 1260323) containing 2% of Penicillin-Streptomycin (PS; PanBiotech, ref: P06-07100, Batch: 2585615) and 1% of bovine serum albumin (BSA; Sigma, Ref: 810533, Batch: 73). Only the ventral portions of the mesencephalic flexure were used for the cell preparation as this region of the developing brain is enriched in dopaminergic neurons. The midbrains were dissociated by […] for 20 minutes (min) at 37° C. (Trypsin EDTA 1×; PanBiotech, Ref: P10-023100, Batch: 8290223). The reaction was stopped by the addition of Dulbecco's modified Eagles medium (DMEM; PanBiotech, Ref: P04-03600, Batch: 6041222) containing Dnase | grade II (0.1 mg/ml; PanBiotech, Ref: P60-37780100, Batch: H210916) and 10% of fetal calf serum (FCS; Invitrogen, Ref: 10270106, Batch: 2534381). Cells were then mechanically dissociated by 3 passages through a 10 mL pipette. Cells were then centrifuged at 180×g for 10 min at +4° C. on a layer of BSA (3.5%) in L15 medium. The supernatant was discarded and the cell pellets were resuspended in a defined culture medium consisting of Neurobasal Plus (Gibco, Ref: A3582901, Batch: 2537248) supplemented with 2% of B27 Plus (Gibco, ref: A3582801, Batch: 2722550), L-glutamine (2 mM; PanBiotech, Ref: P04-80100, Batch: 7061121), 2% of PS, 10 ng/ml of BDNF PeproTech, Ref: 450-02, Batch: 092361) and 1 ng/ml of Glial Derived Neurotrophic factor (GDNF; PeproTech, Ref: 450-10, Batch: 012364). Viable cells were then counted in a Neubauer cytometer using the trypan blue exclusion test. The cells were seeded at a density of 40 000 cells/well in 96 well-plates coated with poly-L-Ornithine (Sigma, Ref: P4957, Batch: RNBL6953) and laminin (Sigma, Ref: L2020, Batch: 0000216258), and were cultured at 37° C. in a humidified air (95%)/CO2 (5%) atmosphere. Half of the medium was changed every 2 days with fresh medium. In these conditions, after 5 days of culture, astrocytes are present in the culture and release growth factor allowing neurons differentiation. In this condition, 2 to 5% of neurons are dopaminergic neurons.
(§3) Briefly, 6-OHDA (Sigma, Ref: H4381, Batch: MKCQ5002) was reconstituted in define culture medium at 40 μM (stock solution). The control medium was prepared in the same conditions. After 7 days of culture, primary mesencephalic neurons were pre-treated for 1 hour with test compounds or reference compound (BDNF, 50 ng/ml) and then intoxicated with 6-OHDA at a final concentration of 20 μM for 2 days incubation in order to induce a neuronal cell death of about 40%. The following conditions were done:
(§4) After 2 days of intoxication, cells were fixed by a solution of 4% paraformaldehyde (Alpha Aesar, ref J19943, Batch: 211457) for 20 min at room temperature, the control conditions were fixed as well following the same procedure. The cells were then permeabilized and non-specific sites were blocked with a solution of phosphate buffered saline (PBS; VWR; ref: L0615-500, Batch: MS01 MB) containing 0.1% of saponin (Sigma; ref: S7900, Batch: BCBL8667V) and 1% FCS for 15 min at room temperature. Cells were incubated with a rabbit polyclonal anti-Tyrosine Hydroxylase antibody (TH, 1/1000, Sigma, ref: AB152, Batch: 3870479) in a solution of PBS overnight at 4° C.
(§5) Nuclei of cells were labelled by a fluorescent marker (Hoechst, Sigma; ref: B1155, Batch: 046M4048V) in the same solution.
(§6) For each condition, 20 pictures per well were taken using InCell Analyzer™ 2200 (GE Healthcare) with 20× magnification. Images of each culture well were taken in same condition.

[2] = tested on: rat primary dopaminergic neurons; experiment: Example 1: 6OH-DA injury on rat primary mesencephalic culture, number of TH positive dopaminergic neurons (survival/viability); details: FIG. 1
[3] = tested on: rat primary dopaminergic neurons; experiment: Example 2: 6-OHDA injury, protective protocol, total number of TH positive neurons (dopaminergic neurons survival); details: for cellular death / protection of dopaminergic neurons from cell death induced by 6-OHDA: one-hour pre-treatment; for cellular death: 6-OHDA 20 μM 48 hours, Plate 1, not significant; for protection of dopaminergic neurons from cell death induced by 6-OHDA: compound alone, 6-OHDA 48 hours, conclusion; for cellular death (decrease of dopaminergic neurons survival): 48 hours; for dopaminergic neurons survival: BDNF 50 ng/ml + 6-OHDA 20 μM 48 hours
Protocol: as §1, §2, §3, §4, §5, §6

[4] = tested on: rat primary dopaminergic neurons; experiment: Example 1: 6OH-DA injury on rat primary mesencephalic culture, neurite length (fitness) of dopaminergic neurons; details: compound alone; as compared to Brain Derived Neurotrophic Factor; FIG. 2
From the text: In these conditions, after 5 days of culture, astrocytes are present in the culture and release growth factor allowing neurons differentiation.

| Molecule | neurites loss ([1]; compound alone at 1 μM) [%] | neurites loss ([1]; compound alone at 3 μM) [%] | neurites loss ([1]; compound alone at 10 μM) [%] | protection of neurites from damages induced by 6-OHDA [1] | cellular death ([3]; compound alone at 1 μM) [%] | cellular death ([3]; compound alone at 3 μM) [%] | cellular death ([3]; compound alone at 10 μM) [%] | protection of dopaminergic neurons from cell death induced by 6-OHDA [3] | other results |
| --- | --- | --- | --- | --- | --- | --- | --- | --- | --- |
| COc1ccc(Cl)cc1C(=O)NCCc1ccc(S(=O)(=O)NC(=O)NC2CCCCC2)cc1 [CXS002, Glibenclamide] | 58 | 57 | 47 | does not protect | 58 | 57 | 47 | does not protect | neuron viability ([2]; at high concentration, 6OHDA intoxication): seems to decrease neuron viability; dopaminergic neuron survival in 6OHDA intoxication ([2]; compound alone, as compared to Brain Derived Neurotrophic Factor): did not improve dopaminergic neuron survival; dopaminergic neuron fitness (neurite length) in 6OHDA intoxication [4]: did not improve dopaminergic neuron fitness |
| NCCc1cc(O)c(O)cc1O [6-OHDA, 6-hydroxydopamine] | – | – | – | – | – | – | – | – | neurites loss (decrease of neurites length) ([1]; Plate 1, FIG. 9, p<0.001): 54%; neurites loss (decrease of neurites length) ([1]; Plate 2, FIG. 10, p<0.0001): 56%; neurites loss (decrease of neurites length) ([1]; Plate 3, FIG. 11, p<0.001): 45%; cellular death (decrease of dopaminergic neurons survival) ([3]; 20 μM, Plate 2, FIG. 7, p<0.0001): 55%; cellular death (decrease of dopaminergic neurons survival) ([3]; 6-OHDA 20 μM, Plate 1, FIG. 6, p<0.0001): 54%; cellular death (decrease of dopaminergic neurons survival) ([3]; 6-OHDA 20 μM, Plate 3, FIG. 8, p<0.001): 46% |
| CN(C)C(=N)NC(=N)N [CXS001, 1,1-dimethylbiguanide] | 38 | 43 | 55 | does not protect | 43 | 44 | 51 | does not protect | – |
| B1 | – | – | – | – | – | – | – | – | neurites length ([1]; BDNF 50 ng/mL + 6-OHDA 20 μM 48 hours, Plate 1, FIG. 9): 79 % of the control; neurites length ([1]; BDNF 50 ng/ml + 6-OHDA 20 μM 48 hours, Plate 2, FIG. 10): 76 % of the control; neurites length ([1]; BDNF 50 ng/ml + 6-OHDA 20 μM 48 hours, Plate 3, FIG. 11): 85 % of the control; dopaminergic neurons survival ([3]; Plate 1, FIG. 6, p<0.05): 81 % of the control; dopaminergic neurons survival ([3]; Plate 2, FIG. 7, p<0.0001): 87 % of the control; dopaminergic neurons survival ([3]; Plate 3, FIG. 8, p<0.05): 83 % of the control |
